Source: patent publication US12616203B2, “Use of 3-isoxazolidinones compounds as selective herbicides” (FMC Corporation, priority 2014, dated 2026)

Key:
Blackgrass = experiment: Ex13 PRE 2,4-DC + diflufenican, % control 28 DAT, Colby; format: in vivo, Alopecurus myosuroides
Description: (§1) Pyroxasulfone (KIH-485, 85%) at 74.3 g ai/ha, pendimethalin (Prowl 3.3EC, 37.4%) at 1200 g ai/ha, or a premix of chlorsulfuron plus metsulfuron-methyl (Report Extra, 75%) at 15.8 g ai/ha were applied as commercial standards. […] Treatments were replicated 3 times and flats were watered after planting before the treatment and lightly watered after treatment application. Thereafter flats were watered and fertilized routinely.

Common lambsquarters = experiment: as above; format: in vivo, Chenopodium album
Description: as §1

Wild mustard = experiment: as above; format: in vivo, Sinapis arvensis
Description: as §1

weeds [1] = experiment: Ex13 PRE greenhouse; format: in vivo; details: 28 DAT, weed and rate in the words
Description: as §1

Wild buckwheat = experiment: Ex11 PRE 2,4-DC + clomazone, % control 28 DAT, Colby; format: in vivo, Polygonum convolvulus
Description: The crop tested was Oilseed rape.
Additional treatments included applications of metazachlor (Butisan®, 43.1%) at 750 g ai/ha, napropamide (Devrinol DF®, 50%) at 1260 g, and dimethachlor (Teridox®, 48%) at 1000 g. […] Treatments were applied just after the planting of tall morningglory, wild mustard, common lambsquarters, Italian ryegrass, wild buckwheat, redroot pigweed, common chickweed, corn poppy, and oilseed rape.
Flats were watered and fertilized routinely after treatment application. Each treatment was replicated three times.

Cheat = experiment: Ex18 PRE 2,4-DC + clomazone, % control 28 DAT, Colby; format: in vivo, Bromus secalinus
Description: (§2) Additional treatments included application of metazachlor (Butisan®, 43.1%) at 750 g ai/ha, napropamide (Devrinol DF®, 50%) at 1260 g ai/ha, and dimethachlor (Teridox®, 48%) at 1000 g ai/ha. […] Treatments were applied just after the seeding of annual bluegrass, cheat, wild oat, quackgrass, field violet, blackgrass, littleseed canarygrass, silky windgrass, yellow foxtail, and goosegrass. […] Flats were watered and fertilized routinely after treatment application. Each treatment was replicated three times.

[2] = tested on: weeds; Sugarcane (var. CTC 20); experiment: Ex17 PRE greenhouse; format: in vivo; details: weed and rate in the words
Protocol: (§3) In this example a study was conducted to determine weed efficacy and sugarcane injury when 2,4 DC or isoxaflutole are applied either alone or tank-mix as preemergence against the weeds: Ivyleaf morningglory (Ipomoea hederacea, IPOHE), hairy beggartickss (Bidens pilosa, BIDPI), yellow nutsedge (Cyperus esculentus, CYPES), large crabgrass (Digitaria sanguinalis, DIGSA), and redroot pigweed (Amaranthus retroflexus, AMARE). The crop tested in this study was Sugarcane (var. CTC 20).
(§4) To determine weed efficacy and sugarcane selectivity, 2,4 DC (SC 36%) and isoxaflutole (Balance Flexx®, 20%) were applied PRE either alone or as tank-mix partners at rates mentioned below. 2,4 DC was applied at 500, 750, and 1000 g ai/ha while isoxaflutole was applied at 80, 100, and 120 g ai/ha. […] Treatments were applied PRE to sugarcane (var. CTC 20), ivyleaf morningglory, hairy beggarticks, yellow nutsedge, large crabgrass, and redroot pigweed. Weed species were planted in fiber flats (6″×10″) containing Pennington soil. Soil was watered before application and watered lightly after application. Flats were watered and fertilized routinely after treatment application.

weeds [3] = experiment: Ex18 PRE greenhouse; format: in vivo; details: weed and rate in the words
Description: as §2

weeds [4] = experiment: Ex10 PRE greenhouse; format: in vivo; details: 28 DAT, weed and rate in the words
Description: Treatments 1-12 of 2,4-DC and aclonifen tank-mix combinations follow same rates listed above. […] Sulfentrazone (Spartan 4F® 39.6%) at 280 g ai/ha, pendimethalin (Prowl 3.3®EC, 37.4%) at 784 g ai/ha, or S-metolachlor (Dual II Magnum® 82.4%) at 1084 g ai/ha were applied as commercial standards. Treatments were replicated 3 times and flats were watered after planting but before the treatment and lightly watered after treatment application. Thereafter flats were watered and fertilized routinely. […] Shepherd's-purse was rated at 21 and 28 DAT only, due to delayed emergence.

[5] = tested on: weeds; Wheat, barley, and oil seed rape (OSR); experiment: Ex19 PRE greenhouse; format: in vivo; details: rate in the words
Description: In this study, the crops tested included Wheat, barley, and oil seed rape (OSR).
To determine weed efficacy and wheat, barley or OSR selectivity, 2,4 DC (CS 36.7%) and Diflufenican (CS 19.5%) were applied preemergence either alone or as tank-mix partners at the following rates. 2,4 DC was applied at 125, 170, 210 and 250 g ai/ha while Diflufenican was applied at 50, 75, and 100 g ai/ha. Pyroxasulfone (KIH-485, 85%) at 74.3 g ai/ha, pendimethalin (Prowl 3.3EC, 37.4%) at 1200 g ai/ha, or a premix of chlorsulfuron plus metsulfuron-methyl (Report Extra, 75%) at 15.8 g ai/ha were applied as commercial standards.
Herbicides included as standards for comparison were pyroxasulfone, pendimethalin, and a pre mix of chlorsulfuron plus metsulfuron methyl, all applied at labeled rates as indicated above. Treatments were replicated 3 times. […] Thereafter flats were watered and fertilized routinely.

Ivyleaf morningglory = experiment: Ex17 PRE 2,4 DC + isoxaflutole, % control 28 DAT, Colby; format: in vivo, Ipomoea hederacea
Protocol: as §3
as §4, with “Weed species were planted in fiber flats (6″×10″) containing Pennington soil.” left out

weeds; Sugarcane (CTC20) = experiment: Ex23 PRE greenhouse; details: 28 DAT, 85 g ai/ha
Protocol: (Ipomoea spp). The tested crop in this study was Sugarcane (CTC20).
Sugarcane was direct seeded into 6″ plastic pots using 3-4″ sugarcane setts, oriented bud up, with bud leaf shield removed. 2,4 DC and sulfentrazone were applied alone or combined as tank-mix at each rate mentioned below. […] Treatments were replicated 3 times. […] Thereafter flats were watered and fertilized routinely. […] Visual percent sugarcane injury was recorded at 21 and 28 DAT, using a scale of 0 (no injury, observed as bleaching, stunting or necrosis) to 100 (complete plant death).

common chickweed = experiment: Ex14 POST 2,4-DC + bromoxynil, % control 28 DAT, Colby; format: in vivo, Stellaria media
Description: (§5) The study further assessed post crop safety on Wheat and Barley.
(§6) Nonionic surfactant at 0.5% (v/v) was included with commercial standards application. No adjuvant was applied with any other treatments. All plant species were direct seeded into 3″ plastic pots using metro-mix as growth media. At treatment application common lambsquarters was 1.75″, common chickweed was 2″, wild mustard was 2.25″, wild oat was 5.5″, wild buckwheat was 2-5″, Italian ryegrass was 2-3″, wheat was 5.5″, and barley was 4.5″ in height. Plants were watered well before application and not watered 24 h after application. Plants were watered and fertilized routinely after treatment application. Each treatment was replicated four times.

weeds; Wheat and Barley = experiment: Ex14 POST greenhouse; format: in vivo; details: 28 DAT, rate in the words
Description: as §5, §6

Common cocklebur = experiment: Ex37 PRE 2,4-DC + atrazine, % control 28 DAT, Colby; format: in vivo, Xanthium strumarium
Description: (§7) S-metolachlor (DUAL II MAGNUM®, 82.4%) at 525 g ai/h plus atrazine at 560 g ai/h was included as a standard for comparison. […] Thereafter flats were watered and fertilized routinely.

Velvetleaf = experiment: as above; format: in vivo, Abutilon theophrasti; details: PRE
Description: as §7

weeds; Wheat and canola = experiment: Ex29 PRE greenhouse; format: in vivo; details: 28 DAT
Description: The tested weeds include Italian ryegrass (Lolium perenne. multiflorum, LOLMU), wild mustard (Sinapis arvensis, SINAR), annual bluegrass (Poa annua, POAAN), wild oat (Avena fatua, AVEFA), blackgrass (Alopecurus myosuroides, ALOMY), common lambsquarters (Chenopodium album, CHEAL), littleseed canarygrass (Phalaris minor, PHAMI), common chickweed (Stellaria media, STEME), corn poppy (Papaver rhoeas, PAPRH), redroot pigweed (Amaranthus retroflexus, AMARE), silky windgrass (Apera spica-venti, APSEV), wild buckwheat (Polygonum convolvulus, POLCO). The crops teased were Wheat and canola.
Treatments were applied before the emergence of Italian ryegrass, wild oat, wild buckwheat, blackgrass, littleseed canarygrass, common chickweed, common lambsquarters, corn poppy, silky windgrass, redroot pigweed, wild mustard, annual bluegrass, canola, and wheat. […] Flats were watered and fertilized routinely after treatment application.

How did the Y (Blackgrass; diflufenican alone 50 g ai/ha) turn out when `O=C(Nc1ccc(F)cc1F)c1cccnc1Oc1cccc(C(F)(F)F)c1` [Diflufenican, diflufenican, reference compound] was run?
Its Y is 33%.

What about the Y (Blackgrass; diflufenican alone 75 g ai/ha) of the same compound?
The Y was 17%.

What about the Y (Blackgrass; diflufenican alone 100 g ai/ha) of the same compound?
Its Y is 27%.

What about the Y (Common lambsquarters; diflufenican alone 50 g ai/ha) of the same compound?
Its Y is 65%.

And the Y (Common lambsquarters; diflufenican alone 75 g ai/ha)?
Its Y is 73%.

What about the Y (Common lambsquarters; diflufenican alone 100 g ai/ha) of the same compound?
Its Y is 85%.

And the Y (Wild mustard; diflufenican alone 50 g ai/ha)?
The Y was 42%.

And the Y (Wild mustard; diflufenican alone 75 g ai/ha)?
Its Y is 89%.

What about the Y (Wild mustard; diflufenican alone 100 g ai/ha) of the same compound?
Its Y is 100%.

What about the “weed control in words” value (weeds [1]) of the same compound?
Its value is “controlled common lambsquarters at 100 g only”.

Which results are given for `CC1(C)CON(Cc2ccccc2Cl)C1=O` [Clomazone, clomazone, reference compound]?
Y (Wild buckwheat; clomazone alone 60 g ai/ha): 70%; Y (Wild buckwheat; clomazone alone 90 g ai/ha): 80%; Y (Wild buckwheat; clomazone alone 120 g ai/ha): 79%; Y (Cheat; clomazone alone 60 g ai/ha): 40%; Y (Cheat; clomazone alone 90 g ai/ha): 75%; Y (Cheat; clomazone alone 120 g ai/ha): 97%; weed control in words [2]: at 1120 g controlled hairy beggarticks, large crabgrass, and redroot pigweed; weed control in words (weeds [3]): controlled goosegrass at all rates and cheat at 120 g

`CCC(CC)Nc1c([N+](=O)[O-])cc(C)c(C)c1[N+](=O)[O-]` [Pendimethalin, pendimethalin] was tested. Which “weed control in words” value (weeds [4]) did it give?
Its value is “at 784 g gave control of 5 out of 10 weeds”.

And the “weed control in words” value (weeds [1])?
Its value is “at 1200 g gave control of 6 out of 10 weeds”.

What about the “weed control / crop safety in words” value [5] of the same compound?
Its value is “controlled corn poppy and field violet and was safe on barley”.

For `CS(=O)(=O)c1cc(C(F)(F)F)ccc1C(=O)c1cnoc1C1CC1` [Isoxaflutole, isoxaflutole, reference compound], which Y (Ivyleaf morningglory; isoxaflutole alone 80 g ai/ha) is on record?
Its Y is 69%.

What about the Y (Ivyleaf morningglory; isoxaflutole alone 100 g ai/ha) of the same compound?
Its Y is 73%.

And the Y (Ivyleaf morningglory; isoxaflutole alone 120 g ai/ha)?
The Y was 81%.

And the “weed control in words” value [2]?
Its value is “alone at 80 g or higher rates controlled hairy beggarticks, large crabgrass, and redroot pigweed”.

And the sugarcane injury (weeds; Sugarcane (CTC20))?
Its sugarcane injury is 12%.

Which results are given for `N#Cc1cc(Br)c(O)c(Br)c1` [Bromoxynil, bromoxynil, reference compound]?
Y (common chickweed; bromoxynil alone 140 g ai/ha): 35%; Y (common chickweed; bromoxynil alone 210 g ai/ha): 65%; Y (common chickweed; bromoxynil alone 280 g ai/ha): 38%; weed control / crop safety in words (weeds; Wheat and Barley): alone controlled wild buckwheat, wild mustard, and common lambsquarters at all rates and was safe on both crops at all rates

What does the source list for `CCNc1nc(Cl)nc(NC(C)C)n1` [Atrazine]?
Y (Common cocklebur; Atrazine alone 140 g ai/ha): 57%; Y (Common cocklebur; Atrazine alone 280 g ai/ha): 92%; Y (Common cocklebur; Atrazine alone 560 g ai/ha): 97%; Y (% control, atrazine alone) (Velvetleaf; atrazine 140 g ai/ha): 53%; Y (% control, atrazine alone) (Velvetleaf; atrazine 280 g ai/ha): 63%; Y (% control, atrazine alone) (Velvetleaf; atrazine 560 g ai/ha): 96%

Which “weed control in words” value (weeds [4]) does the source give for `Nc1c([N+](=O)[O-])ccc(Oc2ccccc2)c1Cl` [Aclonifen, aclonifen] here?
Its value is “alone at all three rates controlled common lambsquarters, quackgrass, redroot pigweed, littleseed canarygrass, annual bluegrass, blackgrass, and shepherd's purse”.

How did the “weed control in words” value (weeds [3]) turn out when `COCCN(C(=O)CCl)c1c(C)cccc1C` [Dimethachlor, dimethachlor] was run?
Its value is “controlled annual bluegrass, quackgrass, littleseed canarygrass, silky windgrass, yellow foxtail, and goosegrass”.

What about the injury to canola (weeds; Wheat and canola; at 100 g) of the same compound?
Its injury to canola is 18%.

What about the “weed control / crop safety in words” value (weeds; Wheat and canola; weed, crop, rate in the words) of the same compound?
Its value is “alone provided control of lambsquarters at 1000 g ai/ha”.
